Source: BindingDB's records for doi:10.7270/Q27P8WT7 (Srmlsc, 2008)

Conditions: inactive by the depositor's call

EC50 [µM]	Structure (SMILES)
78.8	Cc1ccc(OCc2nnc(-c3ccccn3)[nH]2)cc1
55	COc1ccc(C2=NOC(CN3C(=O)c4ccccc4S3(=O)=O)C2)cc1 (stereo not drawn)
55.6	Nc1ccccc1C(=O)/C=C/c1ccc2c(c1)OCO2
41.6	COc1ccc2c3c(cccc13)C(=O)N(O)C2=O
35.6	Fc1ccc(NC(=S)Nc2nccs2)cc1 [1-(4-fluorophenyl)-3-(1,3-thiazol-2-yl)thiourea]
62.3	Brc1ccccc1OCCCn1cnc2ccccc21 [1-[3-(2-bromanylphenoxy)propyl]benzimidazole]
39.6	CCCCNC(=S)Nc1ccc(-c2nc3ccc(C)cc3s2)cc1 [1-butyl-3-[4-(6-methyl-1,3-benzothiazol-2-yl)phenyl]thiourea]
41.7	O=C(Nc1ccccc1)c1ccc2c(c1)OCCO2 [2,3-Dihydro-benzo[1,4]dioxine-6-carboxylic acid phenylamide]
84.7	O=C1CCCc2nc(N3CCc4ccccc43)ncc21 [2-(2,3-dihydroindol-1-yl)-7,8-dihydro-6H-quinazolin-5-one]
39.1	NC(=NOC(=O)COc1ccccc1Cl)c1ccccn1 [2-(2-chlorophenoxy)acetic acid [(Z)-[amino(2-pyridinyl)methylidene]amino] ester]
36.5	NC(=O)Cc1ccc2sc(-c3ccccc3)nc2c1 [2-(2-phenyl-1,3-benzothiazol-5-yl)acetamide]
31.8	Cc1ccc2sc(NC(=O)CSc3nc(C)cc(C)c3C#N)nc2c1 [2-(3-Cyano-4,6-dimethyl-pyridin-2-ylsulfanyl)-N-(5-methyl-benzothiazol-2-yl)-acetamide]
56.4	Cc1ccn2c(c1)nc(=S)n2C(=O)c1ccco1 [2-furanyl-(7-methyl-2-sulfanylidene-[1,2,4]triazolo[1,5-a]pyridin-3-yl)methanone]
47.2	Cc1ccnc(NC(=O)c2cc3ccccc3oc2=O)c1 [2-keto-N-(4-methyl-2-pyridyl)chromene-3-carboxamide]
69.5	O=c1oc(-c2ccccc2)nc2sc3c(c12)CCCC3 [2-phenyl-5,6,7,8-tetrahydro-4H-[1]benzothieno[2,3-d][1,3]oxazin-4-one]
38.9	COc1nc(-c2ccccc2)nnc1-c1ccccc1 [3,6-diphenyl-1,2,4-triazin-5-yl methyl ether]
45.6	COc1ccc(C2=Nc3ccccc3OC2)cc1 [3-(4-methoxyphenyl)-2H-1,4-benzoxazine]
45.1	c1ccc(CSc2ccc(-c3ccccn3)nn2)cc1 [3-(benzylthio)-6-(2-pyridyl)pyridazine]
47.8	CCOc1ccc(C(=O)Nc2cccc(C(=O)O)c2)cc1Cl [3-[(3-chloranyl-4-ethoxy-phenyl)carbonylamino]benzoic acid]

EC50 [µM]	Structure (SMILES)
35.2	CCn1cnc2sc(-c3ccccc3)cc2c1=O [3-ethyl-6-phenyl-4-thieno[2,3-d]pyrimidinone]
50.2	O=C(Nc1ccc2c(c1)CCC2)c1cccc(F)c1 [3-fluoro-N-indan-5-yl-benzamide]
35.5	Nc1nc(-c2ccc3ccccc3c2)cs1 [4-(2-naphthalenyl)-2-thiazolamine]
46.2	Nc1c(-c2ccccc2)cnn1-c1ccc(C(=O)O)cc1 [4-(5-amino-4-phenyl-1-pyrazolyl)benzoic acid]
46.2	CCCCSc1ncc(C(=O)OCC)c(N)n1 [4-Amino-2-butylsulfanyl-pyrimidine-5-carboxylic acid ethyl ester]
64.2	COc1ccc(-c2cn3cc(C(F)(F)F)cc(Cl)c3n2)cc1 [4-[8-chloro-6-(trifluoromethyl)imidazo[1,2-a]pyridin-2-yl]phenyl methyl ether]
36.7	CCOC(=O)c1nn(-c2ccc(C)cc2)cc1C(=O)c1ccccc1 [4-benzoyl-1-(4-methylphenyl)-3-pyrazolecarboxylic acid ethyl ester]
46.5	COc1ccc(C(=O)Oc2c(CN3CCOCC3)cc(Cl)c3cccnc23)cc1 [4-methoxybenzoic acid [5-chloro-7-(4-morpholinylmethyl)-8-quinolinyl] ester]
53.8	Oc1ccc(CN2CCCCC2)c2cccnc12 [5-(1-piperidinylmethyl)-8-quinolinol]
80.1	Cc1cccc(-c2cc(N)n(-c3ccccc3)n2)c1 [5-(3-methylphenyl)-2-phenyl-3-pyrazolamine]
69.3	Cn1nnc(-c2ccc(OCc3ccccc3F)cc2)n1 [5-[4-(2-fluorobenzyl)oxyphenyl]-2-methyl-tetrazole]
69.9	COc1ccc2c(c1OC)C(=O)N(c1cccc(C(F)(F)F)c1)C2 [6,7-dimethoxy-2-[3-(trifluoromethyl)phenyl]-3H-isoindol-1-one]
39.9	CCCNC(=O)c1noc2c1CCc1cc(OC)ccc1-2 [7-methoxy-N-propyl-4,5-dihydrobenz[g]indoxazene-3-carboxamide]
49.5	COc1ccc(OC(=O)c2cnn(-c3ccccc3)c2C)cc1 [(4-methoxyphenyl) 5-methyl-1-phenyl-pyrazole-4-carboxylate]
33.6	Cc1ccc(NC(=O)c2noc3c2CCCCC3)cc1 [MLS000087401]
42.9	CN(C)/C=N/c1ccc2nn(-c3ccccc3)nc2c1 [MLS000105162]
89.6	S=C(c1ccc(-c2cccc(Cl)c2)o1)N1CCOCC1 [MLS000107692]
84.4	Cc1cccc(NC(=O)c2ccc3ccccc3n2)c1C [MLS000569762]
46.4	CC(C)=CC(=O)Nc1ccc(Br)cc1 [N-(4-bromophenyl)-3-methylbut-2-enamide]
